Laboratory results from the NIST ThermoML archive (doi:10.1016/j.jct.2015.12.021).

Conditions: Liquid

Cc1ccccc1 [toluene]
viscosity [mPa·s], Vibrating wire viscometry
Conditions | 293.15 K | 298.15 K | 313.15 K | 323.15 K | 333.15 K | 348.15 K | 353.15 K | 373.15 K
100 kPa | 0.5907 | 0.5555 | 0.469 | 0.4214 | 0.3804 | 0.3302 | 0.3163 | 0.2667
1000 kPa | 0.5928 | 0.5603 | 0.4746 | 0.4238 | 0.3856 | 0.3361 | 0.3177 | 0.2671
5000 kPa | 0.6152 | 0.5772 | 0.4885 | 0.4385 | 0.3986 | 0.3457 | 0.3319 | 0.2782
10000 kPa | 0.6387 | 0.6006 | 0.5046 | 0.4551 | 0.4153 | 0.3588 | 0.3449 | 0.2893
20000 kPa | 0.6881 | 0.6478 | 0.5496 | 0.4877 | 0.4495 | 0.3876 | 0.3701 | 0.315
30000 kPa | 0.7354 | 0.692 | 0.5914 | 0.5293 | 0.4794 | 0.418 | 0.4006 | 0.3401
40000 kPa | 0.7913 | 0.7442 | 0.6239 | 0.565 | 0.5135 | 0.4485 | 0.4291 | 0.3643
50000 kPa | 0.8532 | 0.7983 | 0.6704 | 0.6021 | 0.5485 | 0.4795 | 0.462 | 0.3876
60000 kPa | 0.908 | 0.8463 | 0.7133 | 0.6377 | 0.5835 | 0.5089 | 0.4919 | 0.4138
70000 kPa | 0.9632 | 0.9027 | 0.7572 | 0.6789 | 0.6187 | 0.5441 | 0.5176 | 0.4372
80000 kPa | 1.022 | 0.9625 | 0.8098 | 0.7322 | 0.6579 | 0.5721 | 0.5478 | 0.4649
100000 kPa | 1.149 | 1.081 | 0.9082 | 0.809 | 0.7353 | 0.6407 | 0.6113 | 0.5193
120000 kPa | 1.287 | 1.211 | 1.009 | 0.9034 | 0.8176 | 0.7088 | 0.6825 | –
140000 kPa | 1.456 | 1.349 | 1.128 | 1.004 | 0.9111 | 0.7836 | 0.755 | –

CCCCCCCCCCCC [dodecane]
viscosity [mPa·s]
Conditions | 293.15 K | 313.15 K | 333.15 K | 353.15 K | 373.15 K
100 kPa, Vibrating wire viscometry | 1.491 | 1.064 | 0.8013 | 0.6281 | 0.5055
1000 kPa, Vibrating wire viscometry | 1.507 | 1.074 | 0.8127 | 0.6372 | 0.5149
5000 kPa, Falling or rolling sphere viscometry | – | 1.135 | 0.8518 | 0.6657 | –
5000 kPa, Vibrating wire viscometry | 1.586 | 1.124 | 0.855 | 0.6713 | 0.5392
10000 kPa, Falling or rolling sphere viscometry | – | 1.218 | 0.903 | 0.7047 | –
10000 kPa, Vibrating wire viscometry | 1.672 | 1.201 | 0.8975 | 0.7053 | 0.5743
20000 kPa, Falling or rolling sphere viscometry | – | – | 1.002 | 0.7791 | –
20000 kPa, Vibrating wire viscometry | 1.877 | 1.324 | 1.001 | 0.7819 | 0.6286
30000 kPa, Falling or rolling sphere viscometry | – | – | 1.112 | 0.8651 | –
30000 kPa, Vibrating wire viscometry | 2.084 | 1.476 | 1.095 | 0.8694 | 0.7003
40000 kPa, Falling or rolling sphere viscometry | – | – | 1.223 | 0.9597 | –
40000 kPa, Vibrating wire viscometry | 2.31 | 1.625 | 1.216 | 0.9528 | 0.7715
50000 kPa, Vibrating wire viscometry | 2.56 | 1.778 | 1.321 | 1.037 | 0.8425
60000 kPa, Falling or rolling sphere viscometry | – | – | – | 1.121 | –
60000 kPa, Vibrating wire viscometry | 2.822 | 1.946 | 1.44 | 1.123 | 0.91
70000 kPa, Vibrating wire viscometry | 3.112 | 2.129 | 1.576 | 1.213 | 0.9844
80000 kPa, Vibrating wire viscometry | 3.428 | 2.32 | 1.707 | 1.312 | 1.066
100000 kPa, Vibrating wire viscometry | 4.117 | 2.758 | 1.994 | 1.532 | 1.22
120000 kPa, Vibrating wire viscometry | 4.953 | 3.231 | 2.302 | 1.757 | 1.402
140000 kPa, Vibrating wire viscometry | 5.816 | 3.755 | 2.657 | 2.023 | 1.588

CCCCCCC [heptane]
viscosity [mPa·s]
Conditions | 293.15 K | 298.15 K | 313.15 K | 333.15 K | 353.15 K | 363.15 K
100 kPa, Vibrating wire viscometry | 0.4151 | 0.3914 | 0.3379 | 0.2821 | 0.2406 | 0.2224
1000 kPa, Vibrating wire viscometry | 0.4202 | 0.3962 | 0.3412 | 0.2844 | 0.2435 | 0.2254
5000 kPa, Falling or rolling sphere viscometry | 0.4359 | – | 0.3564 | – | – | –
5000 kPa, Vibrating wire viscometry | 0.4354 | 0.4142 | 0.354 | 0.2965 | 0.2549 | 0.2374
10000 kPa, Falling or rolling sphere viscometry | 0.4603 | – | 0.3756 | – | – | –
10000 kPa, Vibrating wire viscometry | 0.4579 | 0.4329 | 0.3735 | 0.3121 | 0.2672 | 0.2493
20000 kPa, Falling or rolling sphere viscometry | 0.5074 | – | 0.4131 | – | – | –
20000 kPa, Vibrating wire viscometry | 0.5013 | 0.4756 | 0.4074 | 0.3415 | 0.2957 | 0.2757
30000 kPa, Falling or rolling sphere viscometry | 0.5517 | – | 0.4518 | – | – | –
30000 kPa, Vibrating wire viscometry | 0.5459 | 0.5175 | 0.4462 | 0.3746 | 0.3216 | 0.2996
40000 kPa, Falling or rolling sphere viscometry | 0.5949 | – | 0.4899 | – | – | –
40000 kPa, Vibrating wire viscometry | 0.595 | 0.5613 | 0.4806 | 0.4061 | 0.3493 | 0.3252
50000 kPa, Vibrating wire viscometry | 0.6406 | 0.6081 | 0.5208 | 0.4355 | 0.373 | 0.3504
60000 kPa, Falling or rolling sphere viscometry | 0.6912 | – | 0.5683 | – | – | –
60000 kPa, Vibrating wire viscometry | 0.6927 | 0.6535 | 0.5563 | 0.4681 | 0.4019 | 0.3754
70000 kPa, Vibrating wire viscometry | 0.7446 | 0.7026 | 0.5992 | 0.5022 | 0.4304 | 0.3978
80000 kPa, Falling or rolling sphere viscometry | 0.7864 | – | 0.6498 | – | – | –
80000 kPa, Vibrating wire viscometry | 0.7965 | 0.7519 | 0.64 | 0.5337 | 0.457 | 0.4243
100000 kPa, Falling or rolling sphere viscometry | 0.9027 | – | 0.7309 | – | – | –
100000 kPa, Vibrating wire viscometry | 0.9106 | 0.8572 | 0.7259 | 0.603 | 0.5119 | 0.4782
120000 kPa, Falling or rolling sphere viscometry | 1.031 | – | 0.8186 | – | – | –
120000 kPa, Vibrating wire viscometry | 1.028 | 0.972 | 0.8176 | 0.6736 | 0.5735 | 0.5314
140000 kPa, Vibrating wire viscometry | 1.16 | 1.089 | 0.9137 | 0.7509 | 0.6335 | 0.5865
